Data taken from patent publication US6737383B1, “Herbicidal oxadiazolidines” (priority 1999, dated 2004).

What was measured:
pigweed = test: Test B pre/postemergence pigweed; type: in vivo, Amaranthus retroflexus
Outline: (§1)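 Test chemicals in a non-phytotoxic solvent mixture with surfactant were sprayed preemergence onto planted seeds and postemergence onto plants 2 to 18 cm tall (1- to 4-leaf stage). After twelve to sixteen days in a greenhouse, injury was visually rated against untreated controls from 0 (no effect) to 10 (complete control).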

surinam grass = test: Test B pre/postemergence surinam grass; type: in vivo, Brachiaria decumbens
Outline: as §1

giant foxtail = test: Test B pre/postemergence giant foxtail; type: in vivo, Setaria faberii
Outline: as §1

wheat = test: Test B pre/postemergence wheat; type: in vivo, Triticum aestivum
Outline: as §1

corn = test: Test B pre/postemergence corn; type: in vivo, Zea mays
Outline: as §1

morningglory = test: Test B pre/postemergence morningglory; type: in vivo, Ipomoea hederacea
Outline: as §1

bedstraw = test: Test B pre/postemergence bedstraw; type: in vivo, Galium aparine
Outline: as §1

duck salad = test: Test B flood test duck salad; type: in vivo, Heteranthera limosa
Outline: (§2)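 Plants were grown to the 2-leaf stage before treatment with test chemical, then held in a greenhouse for twelve to sixteen days. Injury was visually rated against untreated controls on a 0–10 scale, where 0 is no effect and 10 is complete control.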

soybean = test: Test B pre/postemergence soybean; type: in vivo, Glycine max
Outline: as §1

wild oat = test: Test B pre/postemergence wild oat; type: in vivo, Avena fatua
Outline: as §1

crabgrass = test: Test B pre/postemergence crabgrass; type: in vivo, Digitaria sanguinalis
Outline: as §1

rice = test: Test B flood test rice; type: in vivo, Oryza sativa
Outline: as §2

blackgrass = test: Test B pre/postemergence blackgrass; type: in vivo, Alopecurus myosuroides
Outline: as §1

velvetleaf = test: Test B pre/postemergence velvetleaf; type: in vivo, Abutilon theophrasti
Outline: as §1

purple nutsedge = test: Test B pre/postemergence purple nutsedge; type: in vivo, Cyperus rotundus
Outline: as §1

smallflower flatsedge = test: Test B flood test smallflower flatsedge; type: in vivo, Cyperus difformis
Outline: as §2

[1] = Preemergence, Rate 62 g/ha, scale of 0 to 10 where 0 is no effect and 10 is complete control
[2] = Preemergence, Rate 250 g/ha, scale of 0 to 10 where 0 is no effect and 10 is complete control
[3] = Preemergence, Rate 500 g/ha, scale of 0 to 10 where 0 is no effect and 10 is complete control
[4] = Rate 62 g/ha, Postemergence, scale 0 to 10 (0 no effect, 10 complete control)
[5] = Rate 125 g/ha, Postemergence, scale of 0 to 10 where 0 is no effect and 10 is complete control
[6] = Rate 250 g/ha, Postemergence, scale of 0 to 10 where 0 is no effect and 10 is complete control
[7] = Rate 500 g/ha, Postemergence, scale 0 to 10, 0 no effect, 10 complete control
[8] = Pre-emergence, Rate 1000 g/ha, scale 0 to 10 (0 no effect, 10 complete control)
[9] = Rate 62 g/ha, headed Pre-emergence (flood test species), scale 0 to 10 (0 no effect, 10 complete control)
[10] = Rate 125 g/ha, Pre-emergence, flood test species, scale 0 to 10 where 0 is no effect and 10 is complete control
[11] = Rate 250 g/ha, Pre-emergence, flood-test species, scale 0 to 10, 0 is no effect, 10 is complete control
[12] = Rate 500 g/ha, Pre-emergence, flood test species, scale 0 to 10 (0 no effect, 10 complete control)

CC(C)N(C(=O)n1oc(=O)n(C2CCOCC2)c1=O)c1ccc(F)cc1 [Compound 310]
Redroot pigweed plant response rating (pigweed; [1]): 9
Redroot pigweed plant response rating (0 to 10 scale) (pigweed; Preemergence, Rate 125 g/ha): 10
Redroot pigweed plant response rating (pigweed; [2]): 10
Redroot pigweed plant response rating (pigweed; [3]): 10
Redroot pigweed plant response rating (pigweed; [4]): 0
Redroot pigweed plant response rating (pigweed; [5]): 0
Plant response rating, Redroot pigweed (pigweed; [6]): 3
B. signalgrass plant response rating (surinam grass; [1]): 4
B. signalgrass plant response rating (0 to 10 scale, 0 is no effect, 10 is complete control) (surinam grass; Preemergence, Rate 125 g/ha): 4
B. signalgrass plant response rating (surinam grass; [2]): 7
B. signalgrass plant response rating (surinam grass; [3]): 8
B. signalgrass plant response rating (surinam grass; [4]): 2
B. signalgrass plant response rating (surinam grass; [5]): 3
Plant response rating, B. signalgrass (surinam grass; [6]): 7
B. signalgrass plant response rating (surinam grass; [7]): 7
Giant foxtail plant response rating (giant foxtail; [1]): 10
Giant foxtail plant response rating (0 to 10 scale) (giant foxtail; Preemergence, Rate 125 g/ha): 10
Giant foxtail plant response rating (giant foxtail; [2]): 10
Giant foxtail plant response rating (giant foxtail; [3]): 10
Giant foxtail plant response rating (giant foxtail; [4]): 7
Giant foxtail plant response rating (giant foxtail; [5]): 7
Plant response rating, Giant foxtail (giant foxtail; [6]): 8
Wheat plant response rating (wheat; [1]): 2
Wheat plant response rating (0 to 10 scale) (wheat; Preemergence, Rate 125 g/ha): 2
Wheat plant response rating (wheat; [2]): 5
Wheat plant response rating (wheat; [3]): 7
Wheat plant response rating (wheat; [4]): 4
Wheat plant response rating (wheat; [5]): 4
Plant response rating, Wheat (wheat; [6]): 6
Corn plant response rating (corn; [1]): 0
Corn plant response rating (0 to 10 scale) (corn; Preemergence, Rate 125 g/ha): 0
Corn plant response rating (corn; [2]): 0
Corn plant response rating (corn; [3]): 5
Corn plant response rating (corn; [4]): 0
Corn plant response rating (corn; [5]): 0
Plant response rating, Corn (corn; [6]): 0
Corn plant response rating (corn; [7]): 0
Morningglory plant response rating (morningglory; [1]): 2
Morningglory plant response rating (0 to 10 scale) (morningglory; Preemergence, Rate 125 g/ha): 6
Morningglory plant response rating (morningglory; [2]): 6
Morningglory plant response rating (morningglory; [3]): 8
Morningglory plant response rating (morningglory; [4]): 4
Morningglory plant response rating (morningglory; [5]): 5
Plant response rating, Morningglory (morningglory; [6]): 7
Bedstraw plant response rating (bedstraw; [1]): 2
Bedstraw plant response rating (0 to 10 scale) (bedstraw; Preemergence, Rate 125 g/ha): 3
Bedstraw plant response rating (bedstraw; [2]): 5
Bedstraw plant response rating (bedstraw; [3]): 10
Bedstraw plant response rating (bedstraw; [4]): 4
Bedstraw plant response rating (bedstraw; [5]): 4
Plant response rating, Bedstraw (bedstraw; [6]): 7
Bedstraw plant response rating (bedstraw; [7]): 5
Ducksalad plant response rating (duck salad; [8]): 0
Ducksalad plant response rating (duck salad; [9]): 0
Ducksalad plant response rating (duck salad; [10]): 0
Ducksalad plant response rating (duck salad; [11]): 0
Ducksalad plant response rating (duck salad; [12]): 3
Soybean plant response rating (soybean; [1]): 0
Soybean plant response rating (0 to 10 scale) (soybean; Preemergence, Rate 125 g/ha): 0
Soybean plant response rating (soybean; [2]): 2
Soybean plant response rating (soybean; [3]): 5
Soybean plant response rating (soybean; [4]): 4
Soybean plant response rating (soybean; [5]): 4
Plant response rating, Soybean (soybean; [6]): 4
Wild oats plant response rating (wild oat; [1]): 8
Wild oats plant response rating (0 to 10 scale) (wild oat; Preemergence, Rate 125 g/ha): 9
Wild oats plant response rating (wild oat; [2]): 9
Wild oats plant response rating (wild oat; [3]): 9
Wild oats plant response rating (wild oat; [4]): 3
Wild oats plant response rating (wild oat; [5]): 3
Plant response rating, Wild oats (wild oat; [6]): 3
Crabgrass plant response rating (crabgrass; [1]): 5
Crabgrass plant response rating (0 to 10 scale) (crabgrass; Preemergence, Rate 125 g/ha): 5
Crabgrass plant response rating (crabgrass; [2]): 7
Crabgrass plant response rating (crabgrass; [3]): 7
Crabgrass plant response rating (crabgrass; [4]): 8
Crabgrass plant response rating (crabgrass; [5]): 9
Plant response rating, Crabgrass (crabgrass; [6]): 9
Rice plant response rating (rice; [8]): 0
Rice plant response rating (rice; [9]): 0
Rice plant response rating (rice; [10]): 0
Rice plant response rating (rice; [11]): 0
Rice plant response rating (rice; [12]): 0
Blackgrass plant response rating (blackgrass; [1]): 10
Blackgrass plant response rating (0 to 10 scale) (blackgrass; Preemergence, Rate 125 g/ha): 10
Blackgrass plant response rating (blackgrass; [2]): 10
Blackgrass plant response rating (blackgrass; [3]): 10
Blackgrass plant response rating (blackgrass; [4]): 5
Blackgrass plant response rating (blackgrass; [5]): 7
Plant response rating, Blackgrass (blackgrass; [6]): 9
Blackgrass plant response rating (blackgrass; [7]): 9
Velvetleaf plant response rating (velvetleaf; [1]): 2
Velvetleaf plant response rating (0 to 10 scale) (velvetleaf; Preemergence, Rate 125 g/ha): 3
Velvetleaf plant response rating (velvetleaf; [2]): 7
Velvetleaf plant response rating (velvetleaf; [3]): 8
Velvetleaf plant response rating (velvetleaf; [4]): 2
Velvetleaf plant response rating (velvetleaf; [5]): 3
Plant response rating, Velvetleaf (velvetleaf; [6]): 4
Nutsedge plant response rating (purple nutsedge; [1]): 0
Nutsedge plant response rating (0 to 10 scale) (purple nutsedge; Preemergence, Rate 125 g/ha): 0
Nutsedge plant response rating (purple nutsedge; [2]): 10
Nutsedge plant response rating (purple nutsedge; [3]): 10
Nutsedge plant response rating (purple nutsedge; [4]): 2
Nutsedge plant response rating (purple nutsedge; [5]): 3
Plant response rating, Nutsedge (purple nutsedge; [6]): 6
S. Flatsedge plant response rating (smallflower flatsedge; [8]): 0
S. Flatsedge plant response rating (smallflower flatsedge; [9]): 0
S. Flatsedge plant response rating (smallflower flatsedge; [10]): 0
S. Flatsedge plant response rating (smallflower flatsedge; [11]): 0
S. Flatsedge plant response rating (smallflower flatsedge; [12]): 3
